Experimental findings from patent US12077503B2, “Substituted cyclic amides and their use as herbicides” (FMC CORPORATION, priority 2015, dated 2024) are described below.

Like-named read-outs stand apart in the source and are kept apart here.

Holding throughout (assay): Test A preemergence
What all share (type): in vivo

Assay [1] concerns ryegrass, Italian (Italian ryegrass, Lolium multiflorum). Conditions: Lolium multiflorum, pre-emergence, 240 h; for pest or weed control at 125 g/ha: 125 g ai/ha; for pest or weed control at 500 g/ha: 500 g ai/ha. The method, boiled down:
(§1)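 Seeded soil received test chemicals as a preemergence directed spray, and seedlings at one to two leaves, 2–10 cm tall, received them postemergence, in a non-phytotoxic, surfactant-containing solvent mixture. Pots were held in a greenhouse for approximately 10 d, then rated for injury from 0, no effect, to 100, complete control.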

Assay [2] deals with barnyardgrass (Echinochloa crus-galli). The settings on record: Echinochloa crus-galli, pre-emergence, 240 h; for pest or weed control at 125 g/ha: 125 g ai/ha; for pest or weed control at 500 g/ha: 500 g ai/ha. The method, boiled down: as §1
Assay [3] has as its system pigweed (Amaranthus retroflexus). Conditions: Amaranthus retroflexus, pre-emergence, 240 h; for pest or weed control at 125 g/ha: 125 g ai/ha; for pest or weed control at 500 g/ha: 500 g ai/ha.
The test system of assay [4] is ragweed (common ragweed, Ambrosia elatior). Conditions: Ambrosia artemisiifolia, pre-emergence, 240 h; for pest or weed control at 125 g/ha: 125 g ai/ha; for pest or weed control at 500 g/ha: 500 g ai/ha. The method, boiled down:
as §1

For a further assay, the system named is Kochia (Kochia scoparia). Conditions: Bassia scoparia, pre-emergence, 240 h; for pest or weed control at 125 g/ha: 125 g ai/ha; for pest or weed control at 500 g/ha: 500 g ai/ha. The method, boiled down: as §1
[5] abbreviates: preemergence, 0 to 100 scale where 0 is no effect and 100 is complete control, read-out: Ryegrass, Italian plant response rating.
[6] abbreviates: preemergence, visual injury rating about 10 d after treatment, 0 to 100 scale (0 no effect, 100 complete control), read-out: Barnyardgrass plant response rating.
Where [7] appears, read: preemergence, 0 to 100 scale where 0 is no effect and 100 is complete control, read-out: Pigweed plant response rating.
Where [8] appears, read: preemergence, 0 to 100 scale where 0 is no effect and 100 is complete control, read-out: Ragweed plant response rating.
Setting [9] is: preemergence, 0 to 100 scale where 0 is no effect and 100 is complete control, read-out: Kochia plant response rating.
The mark [10] stands for this setting: Preemergence, visual injury vs untreated controls after approximately 10 d, read-out: Ryegrass, Italian plant response rating (0 to 100 scale where 0 is no effect and 100 is complete control).
The mark [11] stands for this setting: preemergence, 0 to 100 scale where 0 is no effect and 100 is complete control, read-out: Barnyardgrass plant response rating.
Where [12] appears, read: Preemergence, visual injury vs untreated controls after approximately 10 d, read-out: Barnyardgrass plant response rating (0 to 100 scale where 0 is no effect and 100 is complete control).
Where [13] appears, read: Preemergence, visual injury vs untreated controls after approximately 10 d, read-out: Pigweed plant response rating (0 to 100 scale where 0 is no effect and 100 is complete control).
[14] abbreviates: Preemergence, visual injury vs untreated controls after approximately 10 d, read-out: Ragweed plant response rating (0 to 100 scale where 0 is no effect and 100 is complete control).
The mark [15] stands for this setting: Preemergence, visual injury vs untreated controls after approximately 10 d, read-out: Kochia plant response rating (0 to 100 scale where 0 is no effect and 100 is complete control).

As to `CN1C[C@H](c2csc(C(F)F)c2)[C@@H](C(=O)Nc2ccccc2F)C1=O` [Compound 1123], the pest or weed control at 125 g/ha in assay [1] (preemergence, 0 to 100 scale where 0 is no effect and 100 is complete control, approx. 10 d, read-out: Ryegrass, Italian plant response rating) was 40%; in assay [2] (preemergence, 0 to 100 scale where 0 is no effect and 100 is complete control, approx. 10 d, read-out: Barnyardgrass plant response rating), 90%; in assay [3] (preemergence, 0 to 100 scale where 0 is no effect and 100 is complete control, approx. 10 d, read-out: Pigweed plant response rating), 0%; in assay [4] (preemergence, 0 to 100 scale where 0 is no effect and 100 is complete control, approx. 10 d, read-out: Ragweed plant response rating), 20%; in the assay on Kochia (Kochia scoparia) (preemergence, 0 to 100 scale where 0 is no effect and 100 is complete control, approx. 10 d, read-out: Kochia plant response rating), 60%. The pest or weed control at 500 g/ha in assay [1] (setting [5]) came out at 60%; in assay [2] (setting [6]) it was 90%; in assay [3] (setting [7]), 50%; in assay [4] (setting [8]), 60%; with Kochia (Kochia scoparia) (setting [9]), 80%.
As for `COc1cc([C@H]2CN(C)C(=O)[C@@H]2C(=O)Nc2cccc(F)c2F)cc(C(F)(F)F)c1` [Compound 856], the pest or weed control at 125 g/ha came to 50% in assay [1] (setting [5]); 90% in assay [2] (setting [11]); 20% in assay [3] (setting [7]); 0% in assay [4] (setting [8]); 40% in the assay with Kochia (Kochia scoparia) (setting [9]). For the same molecule, the pest or weed control at 500 g/ha in assay [1] (setting [10]) was found to be 80%; in assay [2] (setting [12]), 90%; in assay [3] (setting [13]), 50%; in assay [4] (setting [14]), 20%; in the assay on Kochia (Kochia scoparia) (setting [15]), 50%.
Consider `CN1C[C@H](c2cccc(C3CC3)c2)[C@@H](C(=O)Nc2ccc(F)cc2F)C1=O` [Compound 818], for which the pest or weed control at 125 g/ha in assay [1] (setting [5]) came out at 60%; in assay [2] (setting [11]), 90%; in assay [3] (setting [7]) it was 20%; in assay [4] (setting [8]) it was 0%; in the assay with Kochia (Kochia scoparia) (setting [9]), 70%. In addition, the pest or weed control at 500 g/ha in assay [1] (setting [10]) came out at 90%; in assay [2] (setting [12]), 100%; in assay [3] (setting [13]), 60%; in assay [4] (setting [14]), 0%; in the assay on Kochia (Kochia scoparia) (setting [15]), 80%.
With `CC(C)c1cccc([C@H]2CN(C)C(=O)[C@@H]2C(=O)Nc2ccccc2F)c1` [Compound 819], the pest or weed control at 125 g/ha in assay [1] (setting [5]) was determined as 80%; in assay [2] (setting [11]) it was 90%; in assay [3] (setting [7]) it was 30%; in assay [4] (setting [8]), 0%; in the assay on Kochia (Kochia scoparia) (setting [9]) it was 70%. Moreover, the pest or weed control at 500 g/ha in assay [1] (setting [10]) stood at 100%; in assay [2] (setting [12]), 100%; in assay [3] (setting [13]), 30%; in assay [4] (setting [14]) it was 20%; in the assay with Kochia (Kochia scoparia) (setting [15]), 100%.
As to `O=C(Nc1ccccc1F)[C@H]1C(=O)N(C2CC2)CC[C@@H]1c1ccccc1` [Compound 1031], the pest or weed control at 125 g/ha in assay [1] (Preemergence, visual injury rating after approximately 10 d, read-out: Ryegrass, Italian plant response rating (0 to 100 scale, 0 is no effect, 100 is complete control)) worked out at 0%; in assay [2] (Preemergence, visual injury rating after approximately 10 d, read-out: Barnyardgrass plant response rating (0 to 100 scale, 0 is no effect, 100 is complete control)) it was 0%; in assay [3] (Preemergence, visual injury rating after approximately 10 d, read-out: Pigweed plant response rating (0 to 100 scale, 0 is no effect, 100 is complete control)), 0%; in assay [4] (Preemergence, visual injury rating after approximately 10 d, read-out: Ragweed plant response rating (0 to 100 scale, 0 is no effect, 100 is complete control)), 0%; in the assay on Kochia (Kochia scoparia) (Preemergence, visual injury rating after approximately 10 d, read-out: Kochia plant response rating (0 to 100 scale, 0 is no effect, 100 is complete control)) it was 0%. Besides, the pest or weed control at 500 g/ha in assay [1] (preemergence, visual injury rating about 10 d after treatment, 0 to 100 scale (0 no effect, 100 complete control), read-out: Ryegrass, Italian plant response rating) worked out at 0%; in assay [2] (setting [6]) it was 0%; in assay [3] (preemergence, visual injury rating about 10 d after treatment, 0 to 100 scale (0 no effect, 100 complete control), read-out: Pigweed plant response rating) it was 0%; in assay [4] (preemergence, visual injury rating about 10 d after treatment, 0 to 100 scale (0 no effect, 100 complete control), read-out: Ragweed plant response rating) it was 0%; in the assay on Kochia (Kochia scoparia) (preemergence, visual injury rating about 10 d after treatment, 0 to 100 scale (0 no effect, 100 complete control), read-out: Kochia plant response rating), 0%.
Consider `COc1c(F)ccc([C@H]2CNC(=O)[C@@H]2C(=O)Nc2ccccc2C(F)(F)F)c1Cl` [Compound 891], for which the pest or weed control at 125 g/ha stood at 0% in assay [1] (setting [5]); 60% in assay [2] (setting [11]); 0% in assay [3] (setting [7]); 0% in assay [4] (setting [8]); 0% with Kochia (Kochia scoparia) (setting [9]). Also, the pest or weed control at 500 g/ha in assay [1] (setting [10]) is 30%; in assay [2] (setting [12]), 80%; in assay [3] (setting [13]) it was 0%; in assay [4] (setting [14]) it was 0%; with Kochia (Kochia scoparia) (setting [15]), 20%.
`COc1ccc([C@H]2CN(C)C(=O)[C@@H]2C(=O)Nc2cccc(F)c2F)cc1OC` [Compound 853]: the pest or weed control at 125 g/ha in assay [1] (setting [5]) is 0%; in assay [2] (setting [11]), 90%; in assay [3] (setting [7]) it was 40%; in assay [4] (setting [8]), 0%; in the assay on Kochia (Kochia scoparia) (setting [9]) it was 40%. Also, the pest or weed control at 500 g/ha in assay [1] (setting [10]) is 60%; in assay [2] (setting [12]), 100%; in assay [3] (setting [13]) it was 40%; in assay [4] (setting [14]), 20%; in the assay on Kochia (Kochia scoparia) (setting [15]), 40%.
In the case of `CN1C[C@H](c2cc(F)c(C(F)(F)F)c(F)c2)[C@@H](C(=O)Nc2ccccc2S(C)(=O)=O)C1=O` [Compound 900], the pest or weed control at 125 g/ha is 60% in assay [1] (setting [5]); 90% in assay [2] (setting [11]); 80% in assay [3] (setting [7]); 50% in assay [4] (setting [8]); 90% in the assay on Kochia (Kochia scoparia) (setting [9]). The pest or weed control at 500 g/ha in assay [1] (setting [10]) was found to be 60%; in assay [2] (setting [12]), 90%; in assay [3] (setting [13]), 90%; in assay [4] (setting [14]), 80%; in the assay with Kochia (Kochia scoparia) (setting [15]), 90%.
For the molecule `COc1c(F)ccc([C@H]2CNC(=O)[C@@H]2C(=O)Nc2ccc(F)c(F)c2F)c1Cl` [Compound 890], the pest or weed control at 125 g/ha in assay [1] (setting [5]) is 50%; in assay [2] (setting [11]), 90%; in assay [3] (setting [7]) it was 30%; in assay [4] (setting [8]) it was 0%; in the assay with Kochia (Kochia scoparia) (setting [9]), 40%. The pest or weed control at 500 g/ha in assay [1] (setting [10]) turned out to be 70%; in assay [2] (setting [12]), 90%; in assay [3] (setting [13]) it was 50%; in assay [4] (setting [14]) it was 0%; in the assay with Kochia (Kochia scoparia) (setting [15]) it was 90%.
